Test results as given in paper PMC10354048 (Communications Chemistry, 2023).
In brackets after ≈: the same amount, converted by molar mass. Where no end group is shown, it is not given here. [ ]: non-standard residue; d: D form. Trp(1-Me) = Cn1cc(C[C@H](N)C(=O)O)c2ccccc21

Columns and labels:
Assay in all cases: microbe, parasite or virus in culture
E. faecalis CW133003 = conditions: for Minimum inhibitory concentration E. faecalis CW133003: broth microdilution per CSLI guidelines, Brain Heart Infusion broth, 5 × 10^5 CFU/mL, 37 °C, 20 h, range 64–0.125 µg/mL, average of three repeat assays
Procedure: (§1) Minimum inhibitory concentrations, determined by broth microdilution, are expressed as an average of three repeat assays. […] [a] MIC values expressed in μg/mL, [b] AC: American Type Culture Collection strain, [c] CW: CANWARD collection clinical isolate strain.33.
(§2) Minimum Inhibitory Concentrations (MIC) were determined for each of the bacteriocins and controls using a broth microdilution method, as per CSLI guidelines for microbial susceptibility testing. The peptides were dissolved in sterile deionized water to prepare the working stocks, with concentrations determined by UV absorbance at 280 nm[56]. Overnight cultures from the strains of interest were incubated with shaking overnight at 37 °C. Cation-adjusted Mueller Hinton Broth 2 (MHB 2) was used for the S. aureus, and S. epidermidis strains and Brain Heart Infusion (BHI) broth was utilized for the E. faecalis and E. faecium strains. The cultures were prepared and diluted to the turbidity of a 0.5 McFarland standard using MHB or BHI fresh media. Increasing concentrations of the leaderless bacteriocins were added to a 96-well polypropylene plate. The range tested for each bacteriocin was 64–0.125 µg/mL. The bacterial culture was further diluted and mixed in a 1:1 ratio with the bacteriocin solution to yield a final concentration in the wells of 5 × 10^5 CFU/mL. […] A 1:1000 dilution of the growth control was prepared in the respective media and plated onto agar (100 μL) to ensure the correct inoculum concentration (5 × 10^5 CFU/mL indicated by ≈ 50 bacterial colonies). The 96-well and agar plates were incubated at 37 °C, and growth was assessed by the formation of a pellet observable with the naked eye after 20 h. […] Each assay was performed in triplicate.
(§3) Materials and instruments […]
(§4) Minimum Inhibitory Concentration (MIC)
(§5) assays were conducted in 96-Well Clear polypropylene corner notch microplates (Corning, #11313595). For the […]

S. aureus AC29213 = conditions: for Minimum inhibitory concentration S. aureus AC29213: broth microdilution per CSLI guidelines, cation-adjusted Mueller Hinton Broth 2, 5 × 10^5 CFU/mL, 37 °C, 20 h, range 64–0.125 µg/mL, average of three repeat assays
Procedure: as §1, §2, §3, §4, §5

S. aureus CW113379 = conditions: for Minimum inhibitory concentration S. aureus CW113379: broth microdilution per CSLI guidelines, cation-adjusted Mueller Hinton Broth 2, 5 × 10^5 CFU/mL, 37 °C, 20 h, range 64–0.125 µg/mL, average of three repeat assays
Procedure: as §1, §2, §3, §4, §5

S. aureus CW114125 = conditions: for Minimum inhibitory concentration S. aureus CW114125: broth microdilution per CSLI guidelines, cation-adjusted Mueller Hinton Broth 2, 5 × 10^5 CFU/mL, 37 °C, 20 h, range 64–0.125 µg/mL, average of three repeat assays
Procedure: as §1, §2, §3, §4, §5

S. aureus CW115852 = conditions: for Minimum inhibitory concentration S. aureus CW115852: broth microdilution per CSLI guidelines, cation-adjusted Mueller Hinton Broth 2, 5 × 10^5 CFU/mL, 37 °C, 20 h, range 64–0.125 µg/mL, average of three repeat assays
Procedure: as §1, §2, §3, §4, §5

S. epidermidis CW131612 = conditions: for Minimum inhibitory concentration S. epidermidis CW131612: broth microdilution per CSLI guidelines, cation-adjusted Mueller Hinton Broth 2, 5 × 10^5 CFU/mL, 37 °C, 20 h, range 64–0.125 µg/mL, average of three repeat assays
Procedure: as §1, §2, §3, §4, §5

E. faecalis CW133346 = conditions: for Minimum inhibitory concentration E. faecalis CW133346: broth microdilution per CSLI guidelines, Brain Heart Infusion broth, 5 × 10^5 CFU/mL, 37 °C, 20 h, range 64–0.125 µg/mL, triplicate
Procedure: as §2, §3
(§6) Minimum Inhibitory Concentration (MIC) assays were conducted in 96-Well Clear polypropylene corner notch microplates (Corning, #11313595). For the assay media, cation adjusted Mueller Hinton Broth 2 (Sigma Aldrich, #90922) was used for the S. aureus, and S. epidermidis strains and Brain Heart Infusion broth (BD, #221812) was used for the E. faecalis and E. faecium […]
(§7) used, as well as melittin prepared by automated SPPS. Experimental bacterial strains used were procured from the American Type Culture collection (S. aureus 29213) and the Canadian Antimicrobial Resistance Alliance

E. faecium CW130826 = conditions: for Minimum inhibitory concentration E. faecium CW130826: broth microdilution per CSLI guidelines, Brain Heart Infusion broth, 5 × 10^5 CFU/mL, 37 °C, 20 h, range 64–0.125 µg/mL, triplicate
Procedure: as §2, §3, §6, §7

E. faecium CW131126 = conditions: for Minimum inhibitory concentration E. faecium CW131126: broth microdilution per CSLI guidelines, Brain Heart Infusion broth, 5 × 10^5 CFU/mL, 37 °C, 20 h, range 64–0.125 µg/mL, triplicate
Procedure: as §2, §3, §6, §7

S. epidermidis CW130500 = conditions: for Minimum inhibitory concentration S. epidermidis CW130500: broth microdilution per CSLI guidelines, cation-adjusted Mueller Hinton Broth 2, 5 × 10^5 CFU/mL, 37 °C, 20 h, range 64–0.125 µg/mL, triplicate
Procedure: as §2, §3, §6, §7

Row | Compound | Minimum inhibitory concentration E. faecalis CW133003 (E. faecalis CW133003) | Minimum inhibitory concentration S. aureus AC29213 (S. aureus AC29213) | Minimum inhibitory concentration S. aureus CW113379 (S. aureus CW113379) | Minimum inhibitory concentration S. aureus CW114125 (S. aureus CW114125) | Minimum inhibitory concentration S. aureus CW115852 (S. aureus CW115852) | Minimum inhibitory concentration S. epidermidis CW131612 (S. epidermidis CW131612) | Minimum inhibitory concentration E. faecalis CW133346 (E. faecalis CW133346) | Minimum inhibitory concentration E. faecium CW130826 (E. faecium CW130826) | Minimum inhibitory concentration E. faecium CW131126 (E. faecium CW131126) | Minimum inhibitory concentration S. epidermidis CW130500 (S. epidermidis CW130500) | MIC (E. faecalis CW133003; Enterococcus faecalis, CW133003, 20 h, read-out: Minimum inhibitory concentration E. faecalis CW133003) | MIC (S. aureus AC29213; Staphylococcus aureus, AC29213, 20 h, read-out: Minimum inhibitory concentration S. aureus AC29213) | MIC (S. aureus CW113379; Staphylococcus aureus, CW113379, 20 h, read-out: Minimum inhibitory concentration S. aureus CW113379) | MIC (S. aureus CW114125; Staphylococcus aureus, CW114125, 20 h, read-out: Minimum inhibitory concentration S. aureus CW114125) | MIC (S. aureus CW115852; Staphylococcus aureus, CW115852, 20 h, read-out: Minimum inhibitory concentration S. aureus CW115852) | MIC (S. epidermidis CW131612; Staphylococcus epidermidis, CW131612, 20 h, read-out: Minimum inhibitory concentration S. epidermidis CW131612) | MIC (E. faecalis CW133346; Enterococcus faecalis, CW133346, 20 h, read-out: Minimum inhibitory concentration E. faecalis CW133346) | MIC (E. faecium CW130826; Enterococcus faecium, CW130826, 20 h, read-out: Minimum inhibitory concentration E. faecium CW130826) | MIC (E. faecium CW131126; Enterococcus faecium, CW131126, 20 h, read-out: Minimum inhibitory concentration E. faecium CW131126) | MIC (S. epidermidis CW130500; Staphylococcus epidermidis, CW130500, 20 h, read-out: Minimum inhibitory concentration S. epidermidis CW130500)
1 | [dM][dS][dW][dL][dN][dF][dL][dK][dY][dI][dA][dK][dY]G[dK][dK][dA][dV][dS][dA][dA][dW][dK][dY][dK]G[dK][dV][dL][dE][dW][dL][dN][dV]G[dP][dT][dL][dE][dW][dV][dW][dQ][dK][dL][dK][dK][dI][dA]G[dL]-NH2 [D-AucA, D-aureocin A53 (Met^1-Leu^51)] | 4 µg/mL | 4 µg/mL | 4 µg/mL | 4 µg/mL | 2 µg/mL | 4 µg/mL | 4 µg/mL | 2 µg/mL | 4 µg/mL | 4 µg/mL | – | – | – | – | – | – | – | – | – | –
2 | CN(C)[C@@H]1C(O)=C(C(N)=O)C(=O)[C@@]2(O)C(O)=C3C(=O)c4c(O)cccc4[C@@](C)(O)[C@H]3C[C@@H]12 [Tetracycline, tetracycline, reference compound] | – | – | – | – | – | – | – | – | – | – | 1 µg/mL (≈ 2.25 µM) | < 0.125 µg/mL | 16 µg/mL (≈ 36 µM) | 32 µg/mL (≈ 72 µM) | 8 µg/mL (≈ 18 µM) | 1 µg/mL (≈ 2.25 µM) | 64 µg/mL (≈ 144 µM) | 0.25 µg/mL (≈ 0.563 µM) | > 64 µg/mL | < 0.125 µg/mL
3 | MS[Trp(1-Me)]LNFLKYIAKYGKKAVSAAWKYKGKVLEWLNVGPTLEWVWQKLKKIAGL-NH2 [L-^1MeW3, L-aureocin A53 ^1MeTrp3 (Met^1-Leu^51)] | 2 µg/mL | 4 µg/mL | 4 µg/mL | 4 µg/mL | 8 µg/mL | 8 µg/mL | 1 µg/mL | 2 µg/mL | 2 µg/mL | 4 µg/mL | – | – | – | – | – | – | – | – | – | –
4 | MSWLNFLKYIAKYGKKAVSAAWKYKGKVLEWLNVGPTLEWVWQKLKKIAGL-NH2 [L-AucA, L-aureocin A53 (Met^1-Leu^51)] | 4 µg/mL | 4 µg/mL | 4 µg/mL | 4 µg/mL | 16 µg/mL | 4 µg/mL | 4 µg/mL | 2 µg/mL | 2 µg/mL | 4 µg/mL | – | – | – | – | – | – | – | – | – | –
